The source of these data is US20180162845A1, “ENHANCER OF ZESTE HOMOLOG 2 INHIBITORS” (GLAXOSMITHKLINE INTELLECTUAL PROPERTY (NO.2) LIMITED, priority 2015, published 2018).

The structures appear in SMILES notation.

This test deals with T1, EZH2 within the PRC2 complex (Homo sapiens, UniProt Q15910).
T1 construct: FLAG; made in house; host or cells: Sf9 cells
Description: EZH2 methyltransferase scintillation proximity assay (SPA). It is filed as biochemical. The settings on record: Human PRC2 5 member complex (FLAG-EZH2, EED, SUZ12, RbAp48, AEBP2), biotinylated histone H3K27 peptide, 3H-SAM, 60 min room temperature; ≤10 nM approaches limit of detection. On the procedure: Compounds contained herein were evaluated for their ability to inhibit the methyltransferase activity of EZH2 within the PRC2 complex. Human PRC2 complex was prepared by co-expressing each of the 5 member proteins (FLAG-EZH2, EED, SUZ12, RbAp48, AEBP2) in Sf9 cells followed by co-purification. Enzyme activity was measured in a scintillation proximity assay (SPA) where a tritiated methyl group is transferred from 3H-SAM to a lysine residue on a biotinylated, unmethylated peptide substrate derived from histone H3. The peptides were captured on streptavidin-coated SPA beads and the resulting signal was read on a ViewLux plate reader.
• 1. Prepare 10 mM stock of compounds from solid in 100% DMSO. • 2. Set up an 11-point serial dilution (1:4 dilution, top concentration 10 mM) in 100% DMSO for each test compound in a 384 well plate leaving columns 6 and 18 for DMSO controls. • 3. Dispense 10 nL of compound from the dilution plate into reaction plates (Corning, 384-well polystyrene NBS, Cat# 3673).
• 1. 1× Base Buffer, 50 mM Tris-HCl, pH 8, 2 mM MgCl2: Per 1 L of base buffer, combine 1 M Tris-HCl, pH 8 (50 mL), 1 M MgCl2 (2 mL), and distilled water (948 mL). • 2. 1× Assay Buffer: Per 10 mL of 1× Assay Buffer, combine 1× Base Buffer (9.96 mL), 1 M DTT (40 uL), and 10% Tween-20 (1 uL) to provide a final concentration of 50 mM Tris-HCl, pH 8, 2 mM MgCl2, 4 mM DTT, 0.001% Tween-20. • 3. 2× Enzyme Solution: Per 10 mL of 2× Enzyme Solution, combine 1× Assay Buffer (9.99 mL) and 3.24 uM EZH2 5 member complex (6.17 uL) to provide a final enzyme concentration of 1 nM. • 4. SPA Bead Solution: Per 1 mL of SPA Bead Solution, combine Streptavidin coated SPA beads (PerkinElmer, Cat #RPNQ0261, 40 mg) and 1× Assay Buffer (1 mL) to provide a working concentration of 40 mg/mL. • 5. 2× Substrate Solution: Per 10 mL of 2× Substrate Solution, combine 40 mg/mL SPA Bead Solution (375 uL), 1 mM biotinylated histone H3K27 peptide (200 uL), 12.5 uM 3H-SAM (240 uL; 1 mCi/mL), 1 mM cold SAM (57 uL), and 1× Assay Buffer (9.13 mL) to provide a final concentration of 0.75 mg/mL SPA Bead Solution, 10 uM biotinylated histone H3K27 peptide, 0.15 uM 3H-SAM (˜12 uCi/mL 3H-SAM), and 2.85 uM cold SAM. • 6. 2.67× Quench Solution: Per 10 mL of 2.67× Quench Solution, combine 1 Assay Buffer (9.73 mL) and 10 mM cold SAM (267 uL) to provide a final concentration of 100 uM cold SAM.
• 1. Stamp 10 nL/well of 1000× Compound to test wells (as noted above). • 2. Stamp 10 nL/well of 100% DMSO to columns 6 & 18 (high and low controls, respectively).
• 1. Dispense 5 uL/well of 1× Assay Buffer to column 18 (low control reactions). • 2. Dispense 5 uL/well of 2× Substrate Solution to columns 1-24 (note: substrate solution should be mixed to ensure homogeneous bead suspension before dispensing into matrix reservoir). • 3. Dispense 5 uL/well of 2× Enzyme Solution to columns 1-17, 19-24. • 4. Incubate the reaction for 60 min at room temperature.
• 1. Dispense 6 uL/well of the 2.67× Quench Solution to columns 1-24. • 2. Seal assay plates and spin for ˜1 min at 500 rpm. • 3. Dark adapt plates in the ViewLux instrument for 15-60 min. Read plates • 1. Read the assay plates on the Viewlux Plate Reader utilizing the 613 nm emission filter or clear filter (300 s exposure). • Reagent addition can be done manually or with automated liquid handler.
Percent inhibition was calculated relative to the DMSO control for each compound concentration and the resulting values were fit using standard IC50 fitting parameters within the ABASE data fitting software package.
(Scintillation proximity formats need no separation of bound from free tracer.)

T1 sequence (Q15910 whole entry): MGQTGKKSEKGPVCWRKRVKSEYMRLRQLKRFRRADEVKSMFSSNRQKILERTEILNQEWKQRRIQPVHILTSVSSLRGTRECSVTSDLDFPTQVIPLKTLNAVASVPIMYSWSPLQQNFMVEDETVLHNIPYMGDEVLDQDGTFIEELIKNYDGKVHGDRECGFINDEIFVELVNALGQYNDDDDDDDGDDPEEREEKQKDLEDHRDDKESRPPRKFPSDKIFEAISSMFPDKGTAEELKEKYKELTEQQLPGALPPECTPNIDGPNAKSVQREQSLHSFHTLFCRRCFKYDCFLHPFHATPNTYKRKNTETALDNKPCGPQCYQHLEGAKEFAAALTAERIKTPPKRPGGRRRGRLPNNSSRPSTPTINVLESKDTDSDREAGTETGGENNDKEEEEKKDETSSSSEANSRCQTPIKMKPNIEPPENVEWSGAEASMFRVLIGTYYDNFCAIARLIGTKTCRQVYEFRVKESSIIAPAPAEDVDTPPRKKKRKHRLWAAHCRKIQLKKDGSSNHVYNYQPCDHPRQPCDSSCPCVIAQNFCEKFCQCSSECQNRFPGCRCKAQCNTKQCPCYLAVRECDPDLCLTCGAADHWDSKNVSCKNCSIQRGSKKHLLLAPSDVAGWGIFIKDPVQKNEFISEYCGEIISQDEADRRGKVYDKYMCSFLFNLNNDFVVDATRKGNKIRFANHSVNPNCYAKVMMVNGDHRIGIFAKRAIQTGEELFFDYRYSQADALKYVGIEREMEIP
T1 sequence (O75530 whole entry partner): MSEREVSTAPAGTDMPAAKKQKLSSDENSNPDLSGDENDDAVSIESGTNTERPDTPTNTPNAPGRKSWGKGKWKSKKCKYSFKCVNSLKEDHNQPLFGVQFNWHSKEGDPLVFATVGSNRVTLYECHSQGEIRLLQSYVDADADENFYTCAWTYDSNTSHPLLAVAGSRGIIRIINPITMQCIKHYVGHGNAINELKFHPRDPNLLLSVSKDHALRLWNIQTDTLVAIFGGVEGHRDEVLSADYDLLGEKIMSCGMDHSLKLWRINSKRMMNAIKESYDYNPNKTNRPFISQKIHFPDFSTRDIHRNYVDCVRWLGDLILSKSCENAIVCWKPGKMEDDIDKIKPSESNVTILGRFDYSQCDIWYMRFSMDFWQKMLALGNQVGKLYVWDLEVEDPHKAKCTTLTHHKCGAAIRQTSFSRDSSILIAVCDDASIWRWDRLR
T1 sequence (Q15022 whole entry partner): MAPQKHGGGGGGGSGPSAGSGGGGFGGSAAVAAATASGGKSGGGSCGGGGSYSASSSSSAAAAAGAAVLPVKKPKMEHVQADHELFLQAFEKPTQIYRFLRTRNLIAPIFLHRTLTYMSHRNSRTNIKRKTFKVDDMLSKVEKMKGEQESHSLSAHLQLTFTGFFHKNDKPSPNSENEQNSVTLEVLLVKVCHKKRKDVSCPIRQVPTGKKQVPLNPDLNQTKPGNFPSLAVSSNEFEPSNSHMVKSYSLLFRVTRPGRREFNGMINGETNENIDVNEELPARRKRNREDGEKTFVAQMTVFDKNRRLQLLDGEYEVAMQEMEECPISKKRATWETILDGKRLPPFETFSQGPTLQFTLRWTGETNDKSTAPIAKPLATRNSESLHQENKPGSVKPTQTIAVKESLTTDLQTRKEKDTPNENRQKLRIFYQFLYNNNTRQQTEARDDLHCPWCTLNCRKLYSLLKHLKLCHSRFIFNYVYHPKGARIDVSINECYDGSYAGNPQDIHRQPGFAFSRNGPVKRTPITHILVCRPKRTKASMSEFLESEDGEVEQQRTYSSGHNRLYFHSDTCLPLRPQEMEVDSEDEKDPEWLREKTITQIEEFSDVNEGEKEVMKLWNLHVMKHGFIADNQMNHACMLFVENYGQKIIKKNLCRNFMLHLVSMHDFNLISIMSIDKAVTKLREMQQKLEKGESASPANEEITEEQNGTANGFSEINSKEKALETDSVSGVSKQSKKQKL
T1 sequence (Q09028 whole entry partner): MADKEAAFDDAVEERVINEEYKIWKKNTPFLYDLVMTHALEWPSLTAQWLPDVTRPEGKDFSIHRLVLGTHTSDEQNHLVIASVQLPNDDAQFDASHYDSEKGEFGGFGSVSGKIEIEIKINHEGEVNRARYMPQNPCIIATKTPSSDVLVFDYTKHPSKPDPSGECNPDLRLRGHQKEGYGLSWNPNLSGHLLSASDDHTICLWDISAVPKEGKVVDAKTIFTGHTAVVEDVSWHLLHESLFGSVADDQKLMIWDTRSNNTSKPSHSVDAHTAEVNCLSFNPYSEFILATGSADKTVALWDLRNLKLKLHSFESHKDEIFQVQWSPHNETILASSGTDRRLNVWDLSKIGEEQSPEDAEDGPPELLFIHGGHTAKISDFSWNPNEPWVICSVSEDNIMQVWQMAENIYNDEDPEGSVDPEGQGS
T1 sequence (Q6ZN18 whole entry partner): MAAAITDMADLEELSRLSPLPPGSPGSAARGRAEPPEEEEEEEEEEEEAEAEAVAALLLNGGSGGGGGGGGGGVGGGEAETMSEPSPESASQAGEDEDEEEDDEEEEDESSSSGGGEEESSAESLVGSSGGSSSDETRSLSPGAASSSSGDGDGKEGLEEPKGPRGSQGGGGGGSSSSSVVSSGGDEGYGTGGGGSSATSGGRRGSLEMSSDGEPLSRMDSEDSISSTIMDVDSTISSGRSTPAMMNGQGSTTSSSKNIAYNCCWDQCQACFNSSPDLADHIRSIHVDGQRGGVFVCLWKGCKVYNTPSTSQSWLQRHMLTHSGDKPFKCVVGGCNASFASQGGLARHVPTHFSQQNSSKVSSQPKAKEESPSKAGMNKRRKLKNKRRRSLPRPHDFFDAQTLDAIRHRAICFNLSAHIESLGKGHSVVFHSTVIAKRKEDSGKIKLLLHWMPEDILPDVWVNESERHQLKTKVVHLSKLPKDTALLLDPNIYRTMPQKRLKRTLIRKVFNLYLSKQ

For the molecule `CC[C@@H](c1sc2c(c1C)C(=O)N(Cc1c(C)cc(C)[nH]c1=O)CC2)C1CCN(Cc2ccccn2)CC1` [Example 1, (R)-5-((4,6-dimethyl-2-oxo-1,2-dihydropyridin-3-yl)methyl)-3-methyl-2-(1-(1-(pyridin-2-ylmethyl)piperidin-4-yl)propyl)-6,7-dihydrothieno[3,2-c]pyridin-4(5H)-one], the IC50 (as a rule, the concentration needed to halve the response being measured) is not above 10 nM.

`CC[C@@H](c1sc2c(c1C)C(=O)N(Cc1c(C)cc(C)[nH]c1=O)CC2)C1CCN(Cc2ccccc2)CC1` [Example 2, (R)-2-(1-(1-Benzylpiperidin-4-yl)propyl)-5-((4,6-dimethyl-2-oxo-1,2-dihydropyridin-3-yl)methyl)-3-methyl-6,7-dihydrothieno[3,2-c]pyridin-4(5H)-one] returned an IC50 not above 10 nM.

Take `CC[C@@H](c1sc2c(c1C)C(=O)N(Cc1c(C)cc(C)[nH]c1=O)CC2)C1CCN(Cc2ccncc2)CC1` [Example 3, (R)-5-((4,6-Dimethyl-2-oxo-1,2-dihydropyridin-3-yl)methyl)-3-methyl-2-(1-(1-(pyridin-4-ylmethyl)piperidin-4-yl)propyl)-6,7-dihydrothieno[3,2-c]pyridin-4(5H)-one]: the IC50 is not above 10 nM.

On to `CC[C@@H](c1sc2c(c1C)C(=O)N(Cc1c(C)cc(C)[nH]c1=O)CC2)C1CCN(Cc2ccc(Cl)cn2)CC1` [Example 4, (R)-2-(1-(1-((5-Chloropyridin-2-yl)methyl)piperidin-4-yl)propyl)-5-((4,6-dimethyl-2-oxo-1,2-dihydropyridin-3-yl)methyl)-3-methyl-6,7-dihydrothieno[3,2-c]pyridin-4(5H)-one], for which the IC50 was not above 10 nM.

Turning to `CCC(=C1CCN(Cc2ccnc(OC)c2)CC1)c1scc(C(=O)NCc2c(C)cc(C)[nH]c2=O)c1C` [Example 5, N-((4,6-Dimethyl-2-oxo-1,2-dihydropyridin-3-yl)methyl)-5-(1-(1-((2-methoxypyridin-4-yl)methyl)piperidin-4-ylidene)propyl)-4-methylthiophene-3-carboxamide], the half-maximal inhibitory concentration (IC50) is not above 10 nM.

The molecule `Cc1cc(C)c(CN2CCCc3sc([C@H](C)C4CCN(Cc5ccccn5)CC4)c(C)c3C2=O)c(=O)[nH]1` [Example 6, (R)-5-((4,6-Dimethyl-2-oxo-1,2-dihydropyridin-3-yl)methyl)-3-methyl-2-(1-(1-(pyridin-2-ylmethyl)piperidin-4-yl)ethyl)-5,6,7,8-tetrahydro-4H-thieno[3,2-c]azepin-4-one] gave an IC50 not above 10 nM.

Turning to `COc1cc(CN2CCC([C@@H](C)c3sc4c(c3C)C(=O)N(Cc3c(C)cc(C)[nH]c3=O)CCC4)CC2)ccn1` [Example 7, (R)-5-((4,6-Dimethyl-2-oxo-1,2-dihydropyridin-3-yl)methyl)-2-(1-(1-((2-methoxypyridin-4-yl)methyl)piperidin-4-yl)ethyl)-3-methyl-5,6,7,8-tetrahydro-4H-thieno[3,2-c]azepin-4-one], the IC50 was not above 10 nM.

Turning to `Cc1cc(C)c(CN2CCCc3sc([C@H](C)C4CCN(Cc5ccc(Cl)cn5)CC4)c(C)c3C2=O)c(=O)[nH]1` [Example 8], the half-inhibitory concentration (IC50) is not above 10 nM.

Take `Cc1cccc(CN2CCC([C@@H](C)c3sc4c(c3C)C(=O)N(Cc3c(C)cc(C)[nH]c3=O)CCC4)CC2)n1` [Example 9, (R)-5-((4,6-Dimethyl-2-oxo-1,2-dihydropyridin-3-yl)methyl)-3-methyl-2-(1-(1-((6-methylpyridin-2-yl)methyl)piperidin-4-yl)ethyl)-5,6,7,8-tetrahydro-4H-thieno[3,2-c]azepin-4-one]: the IC50 was not above 10 nM.

Molecule `Cc1cc(C)c(CN2CCCc3sc([C@H](C)C4CCN(Cc5ccccc5)CC4)c(C)c3C2=O)c(=O)[nH]1` [Example 10, (R)-2-(1-(1-Benzylpiperidin-4-yl)ethyl)-5-((4,6-dimethyl-2-oxo-1,2-dihydropyridin-3-yl)methyl)-3-methyl-5,6,7,8-tetrahydro-4H-thieno[3,2-c]azepin-4-one] displayed an IC50 not above 10 nM.

For the molecule `COc1cc(CN2CCC([C@@H](C)c3sc4c(c3C)C(=O)N(Cc3c(C)cc(C)[nH]c3=O)CC4)CC2)ccn1` [Example 11, (R)-5-((4,6-Dimethyl-2-oxo-1,2-dihydropyridin-3-yl)methyl)-2-(1-(1-((2-methoxypyridin-4-yl)methyl)piperidin-4-yl)ethyl)-3-methyl-6,7-dihydrothieno[3,2-c]pyridin-4(5H)-one], the IC50 was not above 10 nM.

In the case of `COc1cccc(CN2CCC([C@@H](C)c3sc4c(c3C)C(=O)N(Cc3c(C)cc(C)[nH]c3=O)CCC4)CC2)n1` [Example 12, (R)-5-((4,6-Dimethyl-2-oxo-1,2-dihydropyridin-3-yl)methyl)-2-(1-(1-((6-methoxypyridin-2-yl)methyl)piperidin-4-yl)ethyl)-3-methyl-5,6,7,8-tetrahydro-4H-thieno[3,2-c]azepin-4-one], the IC50 was not above 10 nM.

The molecule `Cc1cc(C)c(CN2CCCc3sc([C@H](C)C4CCN(CC5CCCCC5)CC4)c(C)c3C2=O)c(=O)[nH]1` [Example 13, (R)-2-(1-(1-(cyclohexylmethyl)piperidin-4-yl)ethyl)-5-((4,6-dimethyl-2-oxo-1,2-dihydropyridin-3-yl)methyl)-3-methyl-5,6,7,8-tetrahydro-4H-thieno[3,2-c]azepin-4-one] registered an IC50 not above 10 nM.

With `Cc1cc(C)c(CN2CCCc3sc([C@H](C)C4CCN(CC5(C)CCCCC5)CC4)c(C)c3C2=O)c(=O)[nH]1` [Example 14, (R)-5-((4,6-Dimethyl-2-oxo-1,2-dihydropyridin-3-yl)methyl)-3-methyl-2-(1-(1-((1-methylcyclohexyl)methyl)piperidin-4-yl)ethyl)-5,6,7,8-tetrahydro-4H-thieno[3,2-c]azepin-4-one], the IC50 was not above 10 nM.
